These are literature values, as cited in patent US11646117B2, “Matrix factorization of antibiogram metadata” (priority 2019, dated 2023).

For this data set, the system named is Klebsiella pneumoniae (biosample SAMN07265011, strain DHQP1605752_NV). Particulars: for Measurement (MIC): CLSI; for Resistance phenotype: testing standard CLSI.

Read-outs that look alike come from different tables or passages of the source.

In the case of `NC[C@H]1O[C@H](O[C@H]2[C@H](O)[C@@H](O[C@H]3O[C@H](CO)[C@@H](O)[C@H](N)[C@H]3O)[C@H](N)C[C@@H]2N)[C@H](N)C[C@@H]1O` [tobramycin], the Resistance phenotype entry is “resistant”. In addition, where the note is “laboratory typing method MIC”, the “Measurement (MIC)” value was over 16 µg/mL.
Take polymyxin B: the “Measurement (MIC)” value (laboratory typing method MIC) was over 8 µg/mL.
As to `C[C@@H](O)[C@H]1C(=O)N2C(C(=O)O)=C(S[C@@H]3CN[C@H](C(=O)N(C)C)C3)[C@H](C)[C@H]12` [meropenem], the Resistance phenotype result is given as “resistant”. Moreover, under “laboratory typing method MIC”, the “Measurement (MIC)” value is over 8 µg/mL.
For `Cc1nnc(SCC2=C(C(=O)O)N3C(=O)[C@@H](NC(=O)Cn4cnnn4)[C@H]3SC2)s1` [cefazolin], the Resistance phenotype entry is listed as “resistant”. Moreover, the “Measurement (MIC)” value (laboratory typing method MIC) was over 8 µg/mL.
For the compound `CN(C)c1cc(NC(=O)CNC(C)(C)C)c(O)c2c1C[C@H]1C[C@H]3[C@H](N(C)C)C(O)=C(C(N)=O)C(=O)[C@@]3(O)C(O)=C1C2=O` [tigecycline], the Resistance phenotype entry was “intermediate”. Besides, the “Measurement (MIC)” value (laboratory typing method MIC) was 4 µg/mL.
In the case of `C[C@H]1[C@H](NC(=O)/C(=N\OC(C)(C)C(=O)O)c2csc(N)n2)C(=O)N1S(=O)(=O)O` [aztreonam], the Resistance phenotype result is listed as “resistant”. The “Measurement (MIC)” value (laboratory typing method MIC) was over 64 µg/mL.
Turning to `CC(C)(O/N=C(\C(=O)N[C@@H]1C(=O)N2C(C(=O)[O-])=C(C[n+]3ccccc3)CS[C@H]12)c1csc(N)n1)C(=O)O` [ceftazidime], the Resistance phenotype result was “resistant”. Also, the “Measurement (MIC)” value (laboratory typing method MIC) is over 128 µg/mL.
On to gentamicin, for which the Resistance phenotype entry is “resistant”. For the same compound, the “Measurement (MIC)” value (laboratory typing method MIC) is over 16 µg/mL.
Regarding `C[C@@H](O)[C@H]1C(=O)N2C(C(=O)O)=C(S[C@@H]3CN[C@H](CNS(N)(=O)=O)C3)[C@H](C)[C@H]12` [doripenem], the Resistance phenotype result is “resistant”. The “Measurement (MIC)” value (laboratory typing method MIC) is over 8 µg/mL.
`C[C@@H](O)[C@H]1C(=O)N2C(C(=O)O)=C(S[C@@H]3CN[C@H](C(=O)Nc4cccc(C(=O)O)c4)C3)[C@H](C)[C@H]12` [ertapenem]: the Resistance phenotype entry is given as “resistant”. Besides, for the setting “laboratory typing method MIC”, the “Measurement (MIC)” value was over 8 µg/mL.
Consider `CO/N=C(\C(=O)N[C@@H]1C(=O)N2C(C(=O)[O-])=C(C[N+]3(C)CCCC3)CS[C@H]12)c1csc(N)n1` [cefepime], for which the Resistance phenotype entry is reported as “resistant”. Further, the “Measurement (MIC)” value (laboratory typing method MIC) was over 32 µg/mL.
On to `O=C(N[C@H](CO)[C@H](O)c1ccc([N+](=O)[O-])cc1)C(Cl)Cl` [chloramphenicol], for which the Resistance phenotype result is given as “resistant”. Further, where the note is “laboratory typing method MIC”, the “Measurement (MIC)” value is over 16 µg/mL.
As to `C[C@@H]1O[C@@H]1P(=O)(O)O` [fosfomycin], the “Measurement (MIC)” value by setting is: (MIC, platform Agar dilution) 32 µg/mL; (MIC, platform Etest) 16 µg/mL.
With `NCC[C@H](O)C(=O)N[C@@H]1C[C@H](N)[C@@H](O[C@H]2O[C@H](CN)[C@@H](O)[C@H](O)[C@H]2O)[C@H](O)[C@H]1O[C@H]1O[C@H](CO)[C@@H](O)[C@H](N)[C@H]1O` [amikacin], the Resistance phenotype entry is listed as “resistant”. The “Measurement (MIC)” value (laboratory typing method MIC) is over 64 µg/mL.
Turning to `CO[C@@]1(NC(=O)Cc2cccs2)C(=O)N2C(C(=O)O)=C(COC(N)=O)CS[C@@H]21` [cefoxitin], the Resistance phenotype result is on record as “resistant”. Moreover, the “Measurement (MIC)” value (laboratory typing method MIC) is over 16 µg/mL.
For the compound colistin, where the note is “laboratory typing method MIC”, the “Measurement (MIC)” value was over 8 µg/mL.
Regarding `CO/N=C(\C(=O)N[C@@H]1C(=O)N2C(C(=O)O)=C(COC(C)=O)CS[C@H]12)c1csc(N)n1` [cefotaxime], the Resistance phenotype entry was “resistant”. In addition, the “Measurement (MIC)” value (laboratory typing method MIC) was over 64 µg/mL.
With `CC1(C)S[C@@H]2[C@H](NC(=O)[C@H](N)c3ccccc3)C(=O)N2[C@H]1C(=O)O` [ampicillin], the Resistance phenotype result was “resistant”. Moreover, under “laboratory typing method MIC”, the “Measurement (MIC)” value is over 32 µg/mL.
As for `CO/N=C(\C(=O)N[C@@H]1C(=O)N2C(C(=O)O)=C(CSc3nc(=O)c(=O)[nH]n3C)CS[C@H]12)c1csc(N)n1` [ceftriaxone], the Resistance phenotype entry is recorded as “resistant”. In addition, the “Measurement (MIC)” value (laboratory typing method MIC) was over 32 µg/mL.
